Results from paper PMC7052086, “Functional characterization of NADPH-cytochrome P450 reductase and cinnamic acid 4-hydroxylase encoding genes from Scoparia dulcis L” (Botanical Studies, 2020).

Molecular target: T1, SdC4H (CYP73A111) with SdCPR (Scoparia dulcis, UniProt U5N2L3)
T1 construct: gene C4H; full-length ORF in pET28b, His-tagged, E. coli BL21(DE3), crude soluble fraction; redox partner recombinant SdCPR (GenBank KF306080) added; with NADPH--cytochrome P450 reductase
Assay: HPLC detection of 4-hydroxylated product
Format: biochemical
Conditions: 1 mM trans-cinnamic acid, 2 mM NADPH, recombinant SdCPR, 50 mM phosphate pH 7.4, 30 °C, 30 min

T1 sequence (U5N2L3 entry or part of it): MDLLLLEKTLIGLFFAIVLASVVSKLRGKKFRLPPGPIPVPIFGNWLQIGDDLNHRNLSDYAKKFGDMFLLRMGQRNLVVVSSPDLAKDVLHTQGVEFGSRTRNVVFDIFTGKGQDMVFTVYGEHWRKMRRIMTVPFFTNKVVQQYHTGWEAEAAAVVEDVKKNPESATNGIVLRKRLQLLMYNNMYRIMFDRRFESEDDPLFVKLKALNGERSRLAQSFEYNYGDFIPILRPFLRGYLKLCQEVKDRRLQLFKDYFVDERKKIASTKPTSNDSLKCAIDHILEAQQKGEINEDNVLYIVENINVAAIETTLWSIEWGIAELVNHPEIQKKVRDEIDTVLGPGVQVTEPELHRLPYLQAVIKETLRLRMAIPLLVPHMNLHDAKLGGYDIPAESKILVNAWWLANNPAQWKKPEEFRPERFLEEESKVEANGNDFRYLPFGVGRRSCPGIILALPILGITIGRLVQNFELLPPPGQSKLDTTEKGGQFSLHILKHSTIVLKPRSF
T1 sequence (U5N352 entry or part of it, further chain): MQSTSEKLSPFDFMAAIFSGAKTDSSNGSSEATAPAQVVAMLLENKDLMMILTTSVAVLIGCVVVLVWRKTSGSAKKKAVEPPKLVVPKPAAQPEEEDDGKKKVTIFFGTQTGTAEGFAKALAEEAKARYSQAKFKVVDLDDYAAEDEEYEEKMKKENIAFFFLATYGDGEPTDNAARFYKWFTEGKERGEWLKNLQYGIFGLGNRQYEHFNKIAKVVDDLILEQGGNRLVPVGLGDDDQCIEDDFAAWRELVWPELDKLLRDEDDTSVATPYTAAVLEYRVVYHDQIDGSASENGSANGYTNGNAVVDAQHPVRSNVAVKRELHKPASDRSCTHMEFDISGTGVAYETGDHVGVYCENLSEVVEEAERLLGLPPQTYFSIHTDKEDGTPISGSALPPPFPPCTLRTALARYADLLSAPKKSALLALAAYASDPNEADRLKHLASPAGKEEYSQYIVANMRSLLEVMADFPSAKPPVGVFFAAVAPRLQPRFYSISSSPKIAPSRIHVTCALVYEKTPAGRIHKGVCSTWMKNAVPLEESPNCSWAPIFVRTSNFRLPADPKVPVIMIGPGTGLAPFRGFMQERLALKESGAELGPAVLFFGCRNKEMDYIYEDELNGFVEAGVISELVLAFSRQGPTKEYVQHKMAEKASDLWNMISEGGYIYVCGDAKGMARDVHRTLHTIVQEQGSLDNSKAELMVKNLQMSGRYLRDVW

SMILES: O=C(O)/C=C/c1ccccc1 [trans-cinnamic acid]
- HPLC detection of 4-hydroxylated product: the C4H activity (trans-cinnamic acid was 4-hydroxylated) of recombinant SdC4H was detected by HPLC
